Source: patent US9290421B2, “Hypervalent radioactive astatine or iodine compounds, and preparation methods thereof” (Institut National de la Santé de la Recherche Medicalé, priority 2010, dated 2016)

Cc1ccc2c(c1)C(C(F)(F)F)(C(F)(F)F)OI2Br [Compound 5a, 1-Bromo-1,3-dihydro-5-methyl-3,3-bis(trifluoromethyl)-1,2-benziodoxole]
melting point: 189 to 190 °C
